Measured values taken from US20190048342A1, “CROSS-REGULATION OF TYPE I INTERFERON SIGNALING PATHWAYS” (THE METHODIST HOSPITAL SYSTEM, priority 2016, published 2019).

What was measured:
P. yoelii YM [1] = test: Daily parasitemia and mortality of mice after P. yoelii YM infection; assay type: in vivo, mouse
Description: (§1) The parasite Plasmodium yoelii YM, N67C and N67 have been previously described (Li, J. et al. Proc Natl Acad Sci USA 108:E374-382 (2011)). For plasmodium infection, 0.2 (low) or 2×10^6 iRBCs (otherwise, indicated specifically in the figure legend) suspended in 200 μl PBS from the donor mice were intraperitoneally injected into experimental mice. A higher parasite dose (1×10^7 iRBCs) was used in some experiments. Parasitemias were monitored daily by examination of Giemsa-stained thin tail blood smears. Female mice C57BL/6 (WT), Mavs^−/−, Mda5^−/−, Myd88^−/−, Sting^−/−, Trif^−/−, BDCA2-DTR, Tlr2^−/−, Tlr3^−/−, and Tlr4^−/− mice were purchased from The Jackson Laboratory. Tlr9^−/− mice, Tlr7^−/−, Rig-I^−/− mice, Irf3^−/−:Irf7^−/− mice, and cGAS^−/− mice were obtained. All mouse-related procedures were performed according to experimental protocols approved by the Animal Care and Welfare Committee at Houston Methodist Research Institute and in accordance with NIH-approved animal study protocol LMVR-11E.
(§2) To deplete pDCs, pDC-depleting functional-grade mAb (anti-mPDCA-1 IgG, clone JF05-1C2.4.1) and the corresponding isotype control IgG, which served as control, were purchased from Miltenyi Biotec (Auburn, Calif.). Two intraperitoneal injections of antibody (250 μg/mouse) per mouse were administered 12 h prior and after YM infection.
In Vivo Ready siRNAs were mixed with Invivofectamine 3.0 liposomes (Invitrogen) following the manufacturer's instructions and injected intravenously in a volume of 100 μl at a dose of 5 mg/kg. Mice were infected with P. yoelii YM (0.5×10^6 iRBCs) 48 h after siRNA treatment.
Deficient (Mda5^−/−, Mavs^−/−, and Sting^−/−) mice were crossed with BDCA2-DTR transgenic mice and treated with diphtheria toxin (DT, Sigma-Aldrich) intraperitoneally (i.p.) at a dose of 100-120 ng/mouse. pDCs were depleted by DT injection at 1 day before and 1, 3, and 5 days after P. yoelii YM infection.
The parasite Plasmodium yoelii YM and Plasmodium yoelii N67C have been previously described (Wu, J. et al. Proc Natl Acad Sci USA 111:E511-520 (2014); Li, J. et al. Proc Natl Acad Sci USA 108:E374-382 (2011)). For plasmodium infection, 0.2 (low) or 2×10^6 iRBCs (otherwise, indicated specifically in the figure legend) suspended in 200 μl PBS from the donor mice were intraperitoneally injected into experimental mice. Parasitemias were monitored daily by examination of Giemsa-stained thin tail blood smears. Female mice C57BL/6 (WT), Mavs^−/−, Mda5^−/−, Sting^−/−, BDCA2-DTR, zDC-DTR, Ifnar^−/−, and Rag2^−/− mice were purchased from The Jackson Laboratory. All mouse-related procedures were performed according to experimental protocols approved by the Animal Care and Welfare Committee at Houston Methodist Research Institute and in accordance with NIH-approved animal study protocol LMVR-11E.
To block type I IFN receptor, anti-mouse interferon α/β receptor antibodies (Leinco Technologies), in the amount of 500 μg in PBS at day 0, 2, 4, and 250 μg at day 6 after infection (or indicated specifically in the figure legend), were intraperitoneally injected into WT and deficient mice. Mouse IgG antibody was used as control, and parasitemias were monitored by daily Giemsa-stained blood smears. To test the role of type I IFN cytokines, C57BL/6 mice were first infected with P. yoelii YM, and then intravenously injected with 800 U/g mouse recombinant IFN-α and IFN-β, recombinant IL-6, or recombinant IFN-γ at the indicated time points. Bovine serum albumin (BSA, 0.1%) in PBS served as a control, and parasitemias were monitored by daily Giemsa-stained blood smears. To deplete pDCs, pDC-depleting functional-grade mAb (anti-mPDCA-1 IgG, clone JF05-1C2.4.1) was purchased from Miltenyi Biotec (Auburn, Calif.), and the corresponding isotype control IgG served as control. Two intraperitoneally injections of antibody (250 μg/mouse) per mouse were administered 12 h prior and after plasmodium YM infection or indicated specifically in the figure legend. […]

P. yoelii YM [2] = test: Serum cytokine levels (ELISA) in mice after P. yoelii YM infection; assay type: in vivo, mouse
Description: as §1, §2
Mouse splenocytes were prepared from spleens cut into small fragments and digested with collagenase D (1 mg/ml, Sigma) and DNAse I (20 μg/ml, Sigma) in RPMI-1640 medium for 30 min. […] Cells were analyzed using the BD FACS Aria II. […]
In Vivo Ready siRNAs were mixed with Invivofectamine 3.0 liposomes (Invitrogen) following the manufacturer's instructions and injected intravenously in a volume of 100 μl at a dose of 5 mg/kg. […]
The parasite Plasmodium yoelii YM and Plasmodium yoelii N67C have been previously described (Wu, J. et al. Proc Natl Acad Sci USA 111:E511-520 (2014); Li, J. et al. Proc Natl Acad Sci USA 108:E374-382 (2011)). […] Parasitemias were monitored daily by examination of Giemsa-stained thin tail blood smears. […]

RNA polymerase III = test: IFN-β mRNA in RAW264.7 cells after P. yoelii YM gDNA stimulation, with RNA polymerase III knockdown or inhibition; assay type: cell-based; details: siRNA 48 h or ML60218 pretreatment 24 h, then P. yoelii YM gDNA stimulation 6 h
Text: FIGS. 10A to 10G show type I IFN gene expression after P. yoelii YM gDNA or RNA stimulation and WT mice serum cytokine level after P. yoelii YM infection. […] Data are plotted as the mean±s.d. and are representative of three independent experiments. *P<0.05, **P<0.01, ***P<0.001 vs. corresponding control. ND, not detected; NS, not significant.
To understand the molecular mechanisms by which mice deficient in the cGAS, Sting, Mda5, or Mavs gene were resistant to P. yoelii YM infection, experiments were conducted to determine whether cGAS and MDA5 function as DNA/RNA sensors for detecting P. yoelii YM gDNAs or RNAs (FIG. 2a). Both purified P. yoelii YM gDNA and RNA could induce IFN-β mRNA expression in RAW264.7 cells (FIG. 2b). The ability of P. yoelii YM gDNA to induce type I IFN response was completely abolished upon DNase, but not RNase, treatment (FIG. 10a). Similarly, the stimulating activity of parasite RNA was abolished after treatment with RNase, but not DNase (FIG. 10a), which is in agreement with other studies showing that malaria RNA can be detected by MDA5 sensor (Liehl, P. et al. Nat Med 20:47-53 (2014); Wu, J. et al. Proc Natl Acad Sci USA 111:E511-520 (2014)). […]

P. berghei ANKA = details: previous studies; cited from earlier work
[3] = Sting-/- mice, macrophage depletion at one day post infection, vs liposome control or treatment two days before
[4] = Mavs-/-:zDC-DTR mice, DT after 24 h of infection, vs untreated or DT four days before
[5] = WT mice, recombinant cytokine i.v. at 18 h post YM infection

**Q.** For `O=P(O)(O)C(Cl)(Cl)P(=O)(O)O` [clodronate], which host mortality (P. yoelii YM [1]; [3]) is on record?
**A.** The host mortality was “markedly increased parasitemia and host mortality”.

**Q.** What about the parasitemia (P. yoelii YM [1]; [3]) of the same molecule?
**A.** The parasitemia was “markedly increased parasitemia and host mortality”.

**Q.** What about the “serum levels of IFN-α and IFN-β” value (P. yoelii YM [2]; Sting-/- mice, macrophage depletion two days before or one day after YM infection) of the same molecule?
**A.** The value was “did not affect”.

**Q.** With diphtheria toxin [DT] as the molecule, how does the “sensitivity to P. yoelii YM infection based on parasitemia and survival” value (P. yoelii YM [1]; DT-treated Mavs-/-:BDCA2-DTR mice vs DT-treated Mavs-/- mice) read?
**A.** The value was “sensitive to P. yoelii YM infection”.

**Q.** And the parasitemia (P. yoelii YM [1]; [4])?
**A.** The parasitemia was “increased parasitemia”.

**Q.** And the time of death (P. yoelii YM [1]; [4])?
**A.** The time of death was “died sooner”.

**Q.** What about the “serum IFN-α and IFN-β” value (P. yoelii YM [2]; Mavs-/-:BDCA2-DTR mice treated with DT vs Mavs-/- mice treated with DT, 24 h after infection) of the same molecule?
**A.** Its value is “markedly reduced”.

**Q.** And the “serum levels of IFN-α and IFN-β” value (P. yoelii YM [2]; Mavs-/-:zDC-DTR chimeric mice, DT four days before or one day post infection)?
**A.** Its value is “no change”.

**Q.** For `Cc1c(-c2cc(NS(=O)(=O)c3ccccc3Cl)n(C)n2)sc2ccc(Cl)cc12` [ML60218], which “IFN-β mRNA expression” value (RNA polymerase III) is on record?
**A.** Its value is “markedly inhibited”.

**Q.** With “murine IFN-β: murine IFN-β of previous studies” as the molecule, how does the “protection of mice from ANKA infection” value (P. berghei ANKA) read?
**A.** The value was “protect”.

B1: IL-6: recombinant IL-6 injected intravenously (protein, UniProt P08505 25-211, looked up)
Interleukin-6: FPTSQVRRGDFTEDTTPNRPVYTTSQVGGLITHVLWEIVEMRKELCNGNSDCMNNDDALAENNLKLPEIQRNDGCYQTGYNQEICLLKISSGLLEYHSYLEYMKNNLKDNKKDKARVLQRDTETLIHIFNQEVKDLHKIVLPTPISNALLTDKLESQKEWLRTKTIQFILKSLEEFLKVTLRSTRQT
**Q.** What does the source list for B1?
**A.** host mortality (P. yoelii YM [1]; [5]): failed to do so; parasitemia (P. yoelii YM [1]; [5]): failed to do so

B2: IFN-γ: recombinant IFN-γ injected intravenously (protein, UniProt P01580 23-155, looked up)
Interferon gamma: HGTVIESLESLNNYFNSSGIDVEEKSLFLDIWRNWQKDGDMKILQSQIISFYLRLFEVLKDNQAISNNISVIESHLITTFFSNSKAKKDAFMSIAKFEVNNPQVQRQAFNELIRVVHQLLPESSLRKRKRSRC
**Q.** Which host mortality (P. yoelii YM [1]; [5]) does the source give for B2 here?
**A.** The host mortality was “failed to do so”.

**Q.** And the parasitemia (P. yoelii YM [1]; [5])?
**A.** Its parasitemia is “slightly increased”.
